Bounds are passed on as bounds.

A word on the melting point: it is the temperature of the solid-liquid transition. Turning to `Cc1c(C(O)C2CCc3cc4ccccc4n3C2=O)ncn1C(c1ccccc1)(c1ccccc1)c1ccccc1` (centres undefined), the melting point fell in the range of 85 to 90 °C.

Take `CC(C)(C#N)c1cc(C#N)cc(Cn2cncn2)c1`: the melting point lay in the range of 90 to 92 °C.

In turn, `O=C(O)c1ccccc1C(=O)NCCCn1ccnc1` gave a melting point of 160 to 162 °C.

Compound `COc1ccc(/C=C/c2ccccn2)cc1OC1CCCC1` gave a melting point of 76 to 77.5 °C.

Take `CC1CCN(C(=O)C2Cc3ccccc3N2c2ccc(=O)n(C)n2)C1` (centres undefined): the melting point fell in the range of 150 to 154 °C.

In turn, `Cc1nccn1CC1CC2CCCn3c2c(c2ccccc23)C1=O` (centres undefined) came in with a melting point of 169 to 171 °C.

For `O=C(NCCO)c1ccc(-c2cccc3cc(Cc4cccc(C(F)(F)F)c4)sc23)cc1`, the melting point was 120 to 121 °C.

Consider `COc1cc(C(=O)c2nc(Br)c3ccccn23)ccc1[N+](=O)[O-]`, for which the melting point was 189 °C.

For `Cc1cc(C)cc(S(=O)(=O)n2c(CCCC(=O)O)cc3cc(Cl)ccc32)c1`, the melting point fell in the range of 204 to 206 °C.

For the compound `C#CCN(Cc1cc2c(=O)n(CCN(C)C)c(CN3CCCCC3)nc2cc1Cl)c1ccc(C(=O)OC(C)(C)C)cc1`, the melting point fell in the range of 75 to 77 °C.

The compound `O=C(COc1ccc(O)cc1)N1CCN(CC(O)Cn2c3ccccc3c3ccccc32)CC1` (centres undefined) yielded a melting point of 155 °C.

`Cc1c(NC(=O)CC(C)(C)C)c(C)c2c(c1-c1cccc(N(C)C)c1)OCC2c1ccc(C(C)C)cc1` (centres undefined) came in with a melting point of 197 to 199 °C.

Turning to `CN1Cc2cncn2-c2ccc(F)c(Cl)c2C1=O`, the melting point lay in the range of 234 to 235 °C.

Compound `CC(C)CC(NC(=O)Cc1ccc(NC(=O)Nc2ccccc2Cl)cc1)c1cc(CCC(=O)O)on1` (centres undefined) registered a melting point of 143 to 145 °C.

In turn, `CC1OC(=O)N2c3ccc(OCCCC(F)(F)F)cc3CCC12` (centres undefined) showed a melting point of 79.1 to 79.2 °C.

Take `CCCC(=O)c1cc(C(=O)C(=O)OC(=O)C(=O)c2cc(C(=O)CCC)c(C)cc2N)c(N)cc1C`: the melting point is 224 to 226 °C.

In turn, `CCCCC(N)S(=O)(=O)O` (centres undefined) came in with a melting point of 142 °C.

`Cn1c(=O)c2ccccc2n(CCCCCl)c1=O` returned a melting point of 99 to 100 °C.

`Cc1nc(N2CCN(CC3CC3)C2=O)sc1C(=O)NCc1ncccc1F` came in with a melting point of 142 to 144 °C.

In turn, `COc1ccc(-n2nc(Sc3ccc(C(C)(C)C)cc3)c(C)c(C#N)c2=O)cc1` gave a melting point of 186 to 188 °C.

Compound `CC(=O)Nc1nc(CCc2ccc(CBr)cc2)cs1` showed a melting point of 148 to 150 °C.

For the compound `N#Cc1cc(NCc2cc3c(cc2O)CCO3)cs1`, the melting point lay in the range of 138 to 139 °C.

The compound `COc1cccc2c1-c1c(OC(C)C)cccc1C2=O` had a melting point of 118 to 120 °C.

The compound `COC(=O)c1nc(-c2ccc(F)c(C)c2F)cc(NC(C)=O)c1Cl` came in with a melting point of 152 to 153 °C.

Consider `CS(=O)(=O)Nc1ncc(SCc2ccccc2)s1`, for which the melting point is 159 to 162 °C.

Turning to `COc1cc(C(C)C)c2c(c1)S(=O)(=O)N(COC(=O)C(C)(C)C)C2=O`, the melting point was in the range of 178 to 179 °C.

`CC(Cc1nc(-c2ccccc2)nc2ccccc12)C(=O)O` (centres undefined) registered a melting point of 180 °C.

As for `O=C(Oc1ccc(O)cc1)c1ccc(O)cc1`, the melting point lay in the range of 242 to 245 °C.

As to `CC(=O)N1CCN(C(=O)C2(C#N)Nc3cc(C)c(-c4ccccc4)c(N4CC[C@H](N(C)C)C4)c3O2)CC1` (some centres undefined), the melting point is 102 to 105 °C.

`CN(Cc1cc(C(F)(F)F)cc(C(F)(F)F)c1)C(=O)c1c(-c2ccccc2)c2ccccc2c(=S)n1C` had a melting point of 145 to 147 °C.

Consider `Fc1cc(F)c(F)c(-c2c(Cl)nc3ncnn3c2Cl)c1`, for which the melting point turned out to be 191 °C.

The compound `O=C(O)CCCCCCc1cc(-c2ccccc2)c2ccccc2n1` had a melting point of 39 °C.

Consider `COC1(C)CCc2c(C)c(OCc3ccccc3)c(C)c(C)c2O1` (centres undefined), for which the melting point is 70 to 72.5 °C.

In turn, `COc1cc(-c2nc(N3CCOCC3)c3c(C)c(C#N)sc3n2)cc(OC)c1OC` displayed a melting point greater than 250 °C.
